ChEMBL document CHEMBL1133263, “A simple polar deacetylated caloporoside derivative is a positive modulator of the GABA(A) chloride channel complex in cortical mammalian neurones” (Bioorg Med Chem Lett, 2000)

Species: Rattus norvegicus
Experiment: Concentration required reduce reversibly the incidence of both spontaneous excitatory post-synaptic currents and inhibitory post-synaptic currents
Format: functional

For `CCCCCCCCO[C@H]1O[C@@H](CO)[C@@H](O)[C@H](O)[C@H]1O`, which Concentration is on record?
Its Concentration is 100 µM.
